{"source": "patent US8828401B2", "about": "“Cytotoxic peptides and antibody drug conjugates thereof” (Pfizer Inc., priority 2011, dated 2014)", "key": {"N87 (gastric cancer)": {"tested_on": "N87 (gastric cancer)", "experiment": "In vitro cell assay, MTS cell viability 96 hours after treatment", "format": "cell-based", "conditions": "read-out: N87 GMEAN IC50, N87 cells; geometric mean; cytotoxic peptides", "method": "(§1) Cells were treated with 3-fold serially diluted antibody-drug conjugates or free compounds (i.e., no antibody conjugated to the drug) in duplicate at 10 concentrations. Cell viability was determined by CellTiter 96® AQueous One Solution Cell Proliferation MTS Assay (Promega, Madison Wis.) 96 hours after treatment. Relative cell viability was determined as percentage of untreated control."}, "[1]": {"tested_on": "MDA-MB-361-DYT2 (breast cancer)", "experiment": "In vitro cell assay, MTS cell viability 96 hours after treatment", "format": "cell-based", "conditions": "read-out: MDA-MB-361-DYT2 GMEAN IC50, MDA-MB-361-DYT2 cells; geometric mean; cytotoxic peptides", "method": "as §1"}}, "note": "Starred links: 1 amine or outer side, 2 acyl side, 3 side chain; linkers in the order of their positions; H or OH if unused. Non-standard residues stand in square brackets, D forms with d. Residues, ends and D or L forms follow the SMILES beside them. *: point of attachment. Dolaproine = CO[C@@H]([C@@H]1CCCN1)[C@@H](C)C(=O)O; X12 = O=C([C@@H](N[*:1])[C@@H]1Cc2ccccc21)[*:2]; Dil = CC[C@H](C)[C@H](NC)[C@@H](CC(=O)O)OC; X10 = C[C@@H](N*)[C@@H](O)c1ccccc1; Ac4c(3-oxa) = NC1(C(=O)O)COC1; αMeP = C[C@@]1(C(=O)O)CCCN1; dIva = CC[C@@](C)(N)C(=O)O; NMeAib = CNC(C)(C)C(=O)O; X8 = C1=CC=CC(CCN*)C=C1; Aib = CC(C)(N)C(=O)O; X14 = c1[nH]nnc1CN*", "data": [{"compound": "CC[C@H](C)[C@@H]([C@@H](CC(=O)N1CCC[C@H]1[C@H](OC)[C@@H](C)C(=S)N[C@@H](Cc1ccccc1)c1nccs1)OC)N(C)C(=O)[C@@H](NC(=O)[C@@H](NC)C(C)C)C(C)C", "note": "[#26, N-methyl-L-valyl-N-[(3R,4S,5S)-3-methoxy-1-{(2S)-2-[(1R,2R)-1-methoxy-2-methyl-3-{[(1S)-2-phenyl-1-(1,3-thiazol-2-yl)ethyl]amino}-3-thioxopropyl]pyrrolidin-1-yl}-5-methyl-1-oxoheptan-4-yl]-N-methyl-L-valinamide]", "values": [{"measurement": "IC50", "setting": "N87 (gastric cancer)", "result": 0.543, "unit": "nM"}, {"measurement": "IC50", "setting": "[1]", "result": 1.04, "unit": "nM"}]}, {"compound": "CC[C@H](C)[C@@H]([C@@H](CC(=O)N1CCC[C@H]1[C@H](OC)[C@@H](C)C(=O)N[C@@H](Cc1ccc(O)cc1)C(=O)OC)OC)N(C)C(=O)[C@@H](NC(=O)C(C)(C)NC)C(C)C", "note": "[#243] (H-[NMeAib]V[Dil][Dolaproine]Y-OMe)", "values": [{"measurement": "IC50", "setting": "N87 (gastric cancer)", "result": 1.3, "unit": "nM"}, {"measurement": "IC50", "setting": "[1]", "result": 1.28, "unit": "nM"}]}, {"compound": "CC[C@H](C)[C@@H]([C@@H](CC(=O)N1CCC[C@H]1[C@H](OC)[C@@H](C)C(=O)N[C@@H](Cc1ccccc1)C(=O)OC)OC)N(C)C(=O)[C@@H](NC(=O)C(C)(C)N)C(C)C", "note": "[#70, 2-methylalanyl-N-[(3R,4S,5S)-3-methoxy-1-{(2S)-2-[(1R,2R)-1-methoxy-3-{[(2S)-1-methoxy-1-oxo-3-phenylpropan-2-yl]amino}-2-methyl-3-oxopropyl]pyrrolidin-1-yl}-5-methyl-1-oxoheptan-4-yl]-N-methyl-L-valinamide] (H-[Aib]V[Dil][Dolaproine]F-OMe)", "values": [{"measurement": "IC50", "setting": "N87 (gastric cancer)", "result": 0.327, "unit": "nM"}, {"measurement": "IC50", "setting": "[1]", "result": 0.225, "unit": "nM"}]}, {"compound": "CC[C@H](C)[C@@H]([C@@H](CC(=O)N1CCC[C@H]1[C@H](OC)[C@@H](C)C(=O)N[C@@H](Cc1ccccc1)C(=O)OC)OC)N(C)C(=O)[C@@H](NC(=O)C(C)(C)CN)C(C)C", "note": "[#126, methyl N-[(2R,3R)-3-{(2S)-1-[(3R,4S,5S)-4-{[N-(3-amino-2,2-dimethylpropanoyl)-L-valyl](methyl)amino}-3-methoxy-5-methylheptanoyl]pyrrolidin-2-yl}-3-methoxy-2-methylpropanoyl]-L-phenylalaninate]", "values": [{"measurement": "IC50", "setting": "N87 (gastric cancer)", "result": 0.375, "unit": "nM"}, {"measurement": "IC50", "setting": "[1]", "result": 0.454, "unit": "nM"}]}, {"compound": "CC[C@H](C)[C@@H]([C@@H](CC(=O)N1CCC[C@H]1[C@H](OC)[C@@H](C)C(=O)N[C@@H](Cc1ccccc1)C(=O)OC)OC)N(C)C(=O)[C@@H](NC(=O)C1(N)COC1)C(C)C", "note": "[#233] (H-[Ac4c(3-oxa)]V[Dil][Dolaproine]F-OMe)", "values": [{"measurement": "IC50", "setting": "N87 (gastric cancer)", "result": 8.41, "unit": "nM"}, {"measurement": "IC50", "setting": "[1]", "result": 5.04, "unit": "nM"}]}, {"compound": "CC[C@H](C)[C@@H]([C@@H](CC(=O)N1CCC[C@H]1[C@H](OC)[C@@H](C)C(=O)N[C@H](C)[C@@H](O)c1ccccc1)OC)N(C)C(=O)[C@@H](NC(=O)C(C)(C)NC)C(C)C", "note": "[#145, N,2-dimethylalanyl-N-{(1S,2R)-4-{(2S)-2-[(1R,2R)-3-{[(1R,2S)-2-hydroxy-1-methyl-2-phenylethyl]amino}-1-methoxy-2-methyl-3-oxopropyl]pyrrolidin-1-yl}-2-methoxy-1-[(1S)-1-methylpropyl]-4-oxobutyl}-N-methyl-L-valinamide] (H-[NMeAib]V[Dil][Dolaproine]-X10)", "values": [{"measurement": "IC50", "setting": "N87 (gastric cancer)", "result": 0.167, "unit": "nM"}, {"measurement": "IC50", "setting": "[1]", "result": 0.229, "unit": "nM"}]}, {"compound": "CC[C@H](C)[C@@H]([C@@H](CC(=O)N1CCC[C@H]1[C@H](OC)[C@@H](C)C(=S)N[C@@H](Cc1ccccc1)C(=O)OC)OC)N(C)C(=O)[C@@H](NC(=O)C(C)(C)N)C(C)C", "note": "[#45, 2-methylalanyl-N-[(3R,4S,5S)-3-methoxy-1-{(2S)-2-[(1R,2R)-1-methoxy-3-{[(2S)-1-methoxy-1-oxo-3-phenylpropan-2-yl]amino}-2-methyl-3-thioxopropyl]pyrrolidin-1-yl}-5-methyl-1-oxoheptan-4-yl]-N-methyl-L-valinamide]", "values": [{"measurement": "IC50", "setting": "N87 (gastric cancer)", "result": 0.385, "unit": "nM"}, {"measurement": "IC50", "setting": "[1]", "result": 0.415, "unit": "nM"}]}, {"compound": "CC[C@H](C)[C@@H]([C@@H](CC(=O)N1CCC[C@H]1[C@H](OC)[C@@H](C)C(=O)NCCC1C=CC=CC=C1)OC)N(C)C(=O)[C@@H](NC(=O)[C@]1(C)CCCN1)C(C)C", "note": "[#182, 2-methyl-L-prolyl-N-[(3R,4S,5S)-1-{(2S)-2-[(1R,2R)-3-{[2-(cyclohepta-2,4,6-trien-1-yl)ethyl]amino}-1-methoxy-2-methyl-3-oxopropyl]pyrrolidin-1-yl}-3-methoxy-5-methyl-1-oxoheptan-4-yl]-N-methyl-L-valinamide] (H-[αMeP]V[Dil][Dolaproine]-X8)", "values": [{"measurement": "IC50", "setting": "N87 (gastric cancer)", "result": 0.148, "unit": "nM"}, {"measurement": "IC50", "setting": "[1]", "result": 0.122, "unit": "nM"}]}, {"compound": "CC[C@H](C)[C@@H]([C@@H](CC(=O)N1CCC[C@H]1[C@H](OC)[C@@H](C)C(=O)N[C@H](C(=O)OC)[C@@H]1Cc2ccccc21)OC)N(C)C(=O)[C@@H](NC(=O)C(C)(C)N)C(C)C", "note": "[#227] (H-[Aib]V[Dil][Dolaproine][X12]-OMe)", "values": [{"measurement": "IC50", "setting": "N87 (gastric cancer)", "result": 19, "unit": "nM"}, {"measurement": "IC50", "setting": "[1]", "result": 12.9, "unit": "nM"}]}, {"compound": "CC[C@H](C)[C@@H]([C@@H](CC(=O)N1CCC[C@H]1[C@H](OC)[C@@H](C)C(=O)N[C@@H](Cc1ccccc1)C(=O)NCc1c[nH]nn1)OC)N(C)C(=O)[C@@H](NC(=O)C(C)(C)NC)C(C)C", "note": "[#240] (H-[NMeAib]V[Dil][Dolaproine]F-X14)", "values": [{"measurement": "IC50", "setting": "N87 (gastric cancer)", "result": 19.9, "unit": "nM"}, {"measurement": "IC50", "setting": "[1]", "result": 23.5, "unit": "nM"}]}, {"compound": "CC[C@H](C)[C@@H]([C@@H](CC(=O)N1CCC[C@H]1[C@H](OC)[C@@H](C)C(=O)N[C@@H](Cc1ccccc1)C(=O)OC)OC)N(C)C(=O)[C@@H](NC(=O)[C@](C)(N)CC)C(C)C", "note": "[#149, D-isovalyl-N-{(1S,2R)-4-{(2S)-2-[(1R,2R)-3-{[(1S)-1-benzyl-2-methoxy-2-oxoethyl]amino}-1-methoxy-2-methyl-3-oxopropyl]pyrrolidin-1-yl}-2-methoxy-1-[(1S)-1-methylpropyl]-4-oxobutyl}-N-methyl-L-valinamide] (H-[dIva]V[Dil][Dolaproine]F-OMe)", "values": [{"measurement": "IC50", "setting": "[1]", "result": 0.428, "unit": "nM"}]}, {"compound": "CC[C@H](C)[C@@H]([C@@H](CC(=O)N1CCC[C@H]1[C@H](OC)[C@@H](C)C(=O)N[C@@H](Cc1ccc2c(c1)CCCN2)C(=O)OC)OC)N(C)C(=O)[C@@H](NC(=O)[C@]1(C)CCCN1C)C(C)C", "note": "[#207, 1,2-dimethyl-L-prolyl-N-[(3R,4S,5S)-3-methoxy-1-{(2S)-2-[(1R,2R)-1-methoxy-3-{[(2S)-1-methoxy-1-oxo-3-(1,2,3,4-tetrahydroquinolin-6-yl)propan-2-yl]amino}-2-methyl-3-oxopropyl]pyrrolidin-1-yl}-5-methyl-1-oxoheptan-4-yl]-N-methyl-L-valinamide]", "values": [{"measurement": "IC50", "setting": "N87 (gastric cancer)", "result": 0.626, "unit": "nM"}]}, {"compound": "CC[C@H](C)[C@@H]([C@@H](CC(=O)N1CCC[C@H]1[C@H](OC)[C@@H](C)C(=O)N[C@@H](Cc1ccccc1)c1nccs1)OC)N(C)C(=O)[C@@H](NC(=O)[C@]1(C)CCCCN1)C(C)C", "note": "[#188, (2S)—N-[(2S)-1-{[(3R,4S,5S)-3-methoxy-1-{(2S)-2-[(1R,2R)-1-methoxy-2-methyl-3-oxo-3-{[(1S)-2-phenyl-1-(1,3-thiazol-2-yl)ethyl]amino}propyl]pyrrolidin-1-yl}-5-methyl-1-oxoheptan-4-yl](methyl)amino}-3-methyl-1-oxobutan-2-yl]-2-methylpiperidine-2-carboxamide]", "values": [{"measurement": "IC50", "setting": "[1]", "result": 0.404, "unit": "nM"}]}, {"compound": "CC[C@H](C)[C@@H]([C@@H](CC(=O)N1CCC[C@H]1[C@H](OC)[C@@H](C)C(=O)NCCC1C=CC=CC=C1)OC)N(C)C(=O)[C@@H](NC(=O)C(C)(C)N)C(C)C", "note": "[#66, 2-Methylalanyl-N-[(3R,4S,5S)-1-{(2S)-2-[(1R,2R)-3-{[2-(cyclohepta-2,4,6-trien-1-yl)ethyl]amino}-1-methoxy-2-methyl-3-oxopropyl]pyrrolidin-1-yl}-3-methoxy-5-methyl-1-oxoheptan-4-yl]-N-methyl-L-valinamide] (H-[Aib]V[Dil][Dolaproine]-X8)", "values": [{"measurement": "IC50", "setting": "[1]", "result": 0.334, "unit": "nM"}]}]}
